According to patent US20250034165A1, “COMPOUND CONTAINING CYCLOALKYL OR HALOALKYL” (CHIA TAI TIANQING PHARMACEUTICAL GROUP CO., LTD., priority 2021, published 2025):
pIC50: −log10 of the molar value.

Assays:
[1] = system: BAF3-EGFR (L858R/T790M/C797S) cells; assay: Inhibition of proliferation of BAF3-EGFR (L858R/T790M/C797S) cells, CCK-8; format: cell-based; conditions: Ba/F3 EGFR, 72 h, read-out: BAF3(EGFR T790M L858R C797S) cell inhibitory activity IC50
Experimental: A flask of EGFR (L858R/T790M/C797S) cells in the logarithmic growth phase and good conditions was taken, and the cells were collected and added to a centrifuge tube. 20 μL of cells were taken and counted, and the required number of cells (mL) was pipetted and centrifuged at 1200 rpm for 3 min. The supernatant was discarded, and an appropriate amount of plating medium (RPMI medium+10% FBS) was added to adjust the cell density to 1.5×10^5 cells/mL. The cells were seeded on a 96-well plate at 100 μL/well using a multi-channel pipette and cultured in a cell incubator at 37° C., 5% CO2 with saturated humidity. After overnight incubation, compounds were loaded using a nanoliter pipettor, 2 duplicate wells were set for each concentration, and cells without compound added were used as negative controls.
(§1) Inhibition rate (%)=(mean value of negative control group-mean value of experimental group)/(mean value of negative control group−mean value of blank group)×100%.
(§2) A dose-response curve was fitted by four-parameter analysis, with the logarithm of compound concentration serving as abscissa and inhibition rate serving as ordinate, such that IC50 was calculated.

[2] = target: EGFR (d746-750/T790M/C797S) (Homo sapiens (Human), UniProt P00533, C797S/DEL746-750/T790M); assay: Inhibitory activity for EGFR (d746-750/T790M/C797S) kinase; format: biochemical; conditions: ATP 5 μM; read-out: EGFR(d19/T790M/C797S) (IC50)
EGFR (d746-750/T790M/C797S), sequence (P00533 other isoform, or with tags, fused parts or gaps T790M/C797S/del 1-694/del 746-750 limits assumed): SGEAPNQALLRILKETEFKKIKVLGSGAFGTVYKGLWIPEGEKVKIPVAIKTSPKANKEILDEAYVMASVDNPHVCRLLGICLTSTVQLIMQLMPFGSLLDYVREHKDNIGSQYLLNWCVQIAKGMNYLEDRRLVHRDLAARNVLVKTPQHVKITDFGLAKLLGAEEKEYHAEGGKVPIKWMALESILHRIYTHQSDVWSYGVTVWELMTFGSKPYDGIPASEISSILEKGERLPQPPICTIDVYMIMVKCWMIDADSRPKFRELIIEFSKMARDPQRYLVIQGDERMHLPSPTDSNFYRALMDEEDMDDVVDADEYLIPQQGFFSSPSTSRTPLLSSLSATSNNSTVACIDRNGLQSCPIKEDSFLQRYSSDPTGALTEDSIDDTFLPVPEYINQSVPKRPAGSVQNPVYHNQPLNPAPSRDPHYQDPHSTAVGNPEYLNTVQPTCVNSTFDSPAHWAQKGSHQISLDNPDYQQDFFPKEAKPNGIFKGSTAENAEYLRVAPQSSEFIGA
Experimental: 1.5 Screening for Inhibitory Activity for EGFR (d746-750/T790M/C797S) Kinase
(§3) A 50 ng/μL EGFR (d746-750/T790M/C797S, BPS) stock solution was diluted with a kinase buffer (50 mM HEPES, 10 mM MgCl2, 2 mM DTT, 1 mM EGTA, 0.01% Tween 20), and 6 μL of 1.67× working solution at 0.05 ng/μL (final concentration: 0.03 ng/μL) was added to each well. Different compounds dissolved in DMSO were added to the wells using a nanoliter pipettor, resulting in the final concentrations of the compounds of 10 nM to 0.0024 nM (4-fold gradient for 7 concentrations in total), and blank control wells (without enzyme) and negative control wells (with enzyme, plus vehicle DMSO) were set, 2 replicate wells for each concentration. After enzyme was reacted with the compound or vehicle for 30 min, 5×ATP at 25 μM (final concentration: 5 μM, Sigma) prepared with a kinase buffer was mixed with 5× substrate at 0.5 μM (final concentration: 0.1 μM, ULight-poly GT, PerkinElmer) at a ratio of 1:1 (v:v), and the mixture was added to each well at 4 μL/well. After being sealed with a film, the plate was incubated at room temperature for 2 h, and then 5 μL of 4×EDTA at 40 mM (final concentration: 10 mM) was added to each well. After the plate was incubated for 5 min at room temperature, 5 μL of 4× detection reagent at 8 nM (final concentration: 2 nM, Eu-anti-phospho-tyrosine antibody, PerkinElmer) was added to each well. After being incubated at room temperature for 1 h, the plate was read using a PerkinElmer Envision multi-mode microplate reader (excitation: 320 nm, emission: 665 nm), and IC50 was calculated by four-parameter fitting.

[3] = target: EGFR (d746-750 (d19)/T790M) (Homo sapiens (Human), UniProt P00533, DEL746-750/T790M); assay: Inhibitory activity for EGFR (d746-750 (d19)/T790M) kinase; format: biochemical; conditions: ATP 5 μM
EGFR (d746-750 (d19)/T790M), sequence (P00533 other isoform, or with tags, fused parts or gaps T790M/del 1-668/del 746-750 limits assumed): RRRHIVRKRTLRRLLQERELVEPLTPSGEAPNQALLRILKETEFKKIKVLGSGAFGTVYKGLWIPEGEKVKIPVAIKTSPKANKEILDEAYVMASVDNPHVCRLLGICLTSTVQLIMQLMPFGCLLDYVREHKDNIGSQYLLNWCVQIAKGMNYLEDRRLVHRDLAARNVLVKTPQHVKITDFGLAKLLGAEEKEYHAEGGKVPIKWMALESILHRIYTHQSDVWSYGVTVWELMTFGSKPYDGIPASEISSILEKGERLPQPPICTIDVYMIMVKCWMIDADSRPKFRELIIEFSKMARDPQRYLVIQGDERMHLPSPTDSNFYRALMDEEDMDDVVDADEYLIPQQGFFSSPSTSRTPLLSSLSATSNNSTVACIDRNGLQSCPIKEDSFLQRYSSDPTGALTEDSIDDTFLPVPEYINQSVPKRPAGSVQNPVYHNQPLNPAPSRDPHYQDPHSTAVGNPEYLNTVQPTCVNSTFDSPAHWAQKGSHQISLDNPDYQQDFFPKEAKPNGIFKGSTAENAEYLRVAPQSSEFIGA
Experimental: 1.3 Screening for Inhibitory Activity for EGFR (d746-750 (d19)/T790M) Kinase
as §3, with “(d746-750/T790M, Carna)” for “(d746-750/T790M/C797S, BPS)”, “0.005” for “0.05”, “0.003” for “0.03”

[4] = system: PC-9 EGFR-Del19-T790M-C797S cells; assay: Inhibition of proliferation of PC-9-EGFR (Del19 T790M C797S) cells, CCK-8; format: cell-based; conditions: 72 h, read-out: PC-9-EGFR (Del19 T790M C797S) cell inhibitory activity IC50
Experimental: PC-9 EGFR-Del19-T790M-C797S cells in the logarithmic growth phase and good conditions were taken, washed with PBS, digested with pancreatin, terminated with a complete medium, collected and added to a centrifuge tube, adjusted to a cell density of 2×10^4 cells/mL, and seeded in a 96-well plate (100 μL/well). Meanwhile, compounds were loaded using a nanoliter pipettor resulting in the final concentrations of the compounds of 1000 nM-0.06 nM, and a control was set, replicate wells for each concentration. After 72 h of incubation in the cell incubator, the assay reagent CCK-8 (manufacturer: Dojindo Laboratories, Beijing; 10 μL/well) was added. After 2 h of incubation in the cell incubator, absorbance was measured at 450 nm on a PerkinElmer Envision microplate reader, and the inhibition rate was calculated.
as §1, §2

pIC50 [1]	pIC50 [2]	pIC50 [3]	pIC50 [4]	SMILES
> 8.30	10.06	–	–	Cc1cc2cc(n1)-c1cnn(C)c1OCCC[C@@H](C1CC1)CN1/C(=N/C2=O)Nc2cc(N[C@@H](C)CN3CCCCC3)ccc21 [Example 138]
> 8.30	10.11	–	–	Cc1cc2cc(n1)-c1cnn(C)c1OCCC[C@@H](C1CC1)CN1/C(=N/C2=O)Nc2cc(N[C@@H](C)CCN3CCCCC3)ccc21 [Example 140]
> 8.30	10.10	–	–	Cc1cc2cc(n1)-c1cnn(C)c1OCCC[C@@H](C1CC1)CN1/C(=N/C2=O)Nc2ccc(N[C@@H](C)CN3CCCCC3)cc21 [Example 142]
> 8.30	–	–	–	[2H]C([2H])([2H])N(C[C@@H](C)Nc1ccc2c(c1)N1C[C@H](C3CC3)CCCOc3c(cnn3C)-c3cc(cc(C)n3)C(=O)/N=C/1N2)C([2H])([2H])[2H] [Example 145]
> 8.30	–	–	–	Cc1cc2cc(n1)-c1cnn(C)c1OCCC[C@@H](C1CC1)CN1/C(=N/C2=O)Nc2cc(N[C@@H]3CC[C@H](O)C3)ccc21 [Example 150]

Continued, compound first:

SMILES	pIC50 [1]	pIC50 [2]	pIC50 [3]	pIC50 [4]
Cc1cc2cc(n1)-c1cnn(C)c1OCCC[C@@H](C1CC1)CN1/C(=N/C2=O)Nc2cc(NCCCCN(C)C)ccc21 [Example 51]	> 8.30	10.70	10.89	–
CNCCCCNc1ccc2c(c1)N/C1=N\C(=O)c3cc(C)nc(c3)-c3cnn(C)c3OCCC[C@@H](C3CC3)CN12 [Example 52]	> 8.30	10.55	10.68	–
Cc1cc2cc(n1)-c1cnn(C)c1OCCC[C@@H](C1CC1)CN1/C(=N/C2=O)Nc2cc(NCCCCN)ccc21 [Example 53]	> 8.30	10.89	11.01	–
Cc1cc2cc(n1)-c1cnn(C)c1OCCC[C@@H](C1CC1)CN1/C(=N/C2=O)Nc2cc(N[C@H](C)CN(C)C)ccc21 [Example 67]	> 8.30	10.08	–	–
Cc1cc2cc(n1)-c1cnn(C)c1OCCC[C@@H](C1CC1)CN1/C(=N/C2=O)Nc2cc(NCCN3CCCCC3)ccc21 [Example 73]	> 8.30	–	–	–
Cc1cc2cc(n1)-c1cnn(C)c1OCCC[C@@H](C1CC1)CN1/C(=N/C2=O)Nc2ccc(N(C)[C@@H](C)CN(C)C)cc21 [Example 85]	–	–	–	> 7.30
Cc1cc2cc(n1)-c1cnn(C)c1OCCC[C@@H](C1CC1)CN1/C(=N/C2=O)Nc2ccc(NC(=O)CN(C)C)cc21 [Example 111]	> 8.30	10.14	–	–
[2H]C([2H])([2H])N(CCN(C)C)c1ccc2c(c1)N1C[C@H](C3CC3)CCCOc3c(cnn3C)-c3cc(cc(C)n3)C(=O)/N=C/1N2 [Example 116]	–	–	–	> 7.30
Cc1cc2cc(n1)-c1cnn(C)c1OCCC[C@@H](C1CC1)CN1/C(=N/C2=O)Nc2ccc(N[C@H]3CC[C@H](N(C)C)C3)cc21 [Example 136]	–	–	9.82	> 7.30
Cc1cc2cc(n1)-c1cnn(C)c1OCCC[C@@H](C1CC1)CN1/C(=N/C2=O)Nc2cc(N[C@H](C)CN3CCCCC3)ccc21 [Example 137]	> 8.30	10.07	–	–
